Source: patent publication US7700106B2, “Therapeutic agent for ulcerative colitis” (priority 2001, dated 2010)

How the values were obtained:
Fusobacterium varium = assay: Susceptibility of Fusobacterium varium to antimicrobial agents; format: cell-based
Excerpt: The susceptibility to Fusobacterium varium in antimicrobial agents was examined.

Molecule | resistance of Fusobacterium varium to antimicrobial agent (Fusobacterium varium) | colonic lesions after enema (mice; mice, twenty-four hours after enema) | lesion after injection into the rectum (mice; mouse, injected into the rectum)
gentamycin | resistant |  | 
CC[C@H]1OC(=O)[C@H](C)[C@@H](O[C@H]2C[C@@](C)(OC)[C@@H](O)[C@H](C)O2)[C@H](C)[C@@H](O[C@@H]2O[C@H](C)C[C@H](N(C)C)[C@H]2O)[C@](C)(OC)C[C@@H](C)C(=O)[C@H](C)[C@@H](O)[C@]1(C)O [clarithromycin] | resistant |  | 
CC[C@H]1OC(=O)[C@H](C)[C@@H](O[C@H]2C[C@@](C)(OC)[C@@H](O)[C@H](C)O2)[C@H](C)[C@@H](O[C@@H]2O[C@H](C)C[C@H](N(C)C)[C@H]2O)[C@](C)(O)C[C@@H](C)C(=O)[C@H](C)[C@@H](O)[C@]1(C)O [erythromycin] | resistant |  | 
CCCC(=O)O [butyric acid] |  | colonic ulcers with crypt abscesses, inflammatory cell infiltration and apoptotic changes | a lesion similar to ulcerative colitis was induced
[H]/N=C(/N)N[C@H]1[C@H](O)[C@@H](O)[C@H](O[C@@H]2O[C@@H](C)[C@](O)(C=O)[C@H]2O[C@@H]2O[C@@H](CO)[C@H](O)[C@@H](O)[C@@H]2NC)[C@@H](N/C(N)=N\[H])[C@@H]1O [streptomycin] | resistant |  | 
